What was measured:
IgE = IgE produced in in vitro culture of spleen cells from DNP-As immunized mice (ELISA); type: cell-based, BALB/c mice; conditions: Mus musculus, 96 h, spleen cell culture, 37° C., 4 days; for inhibition at 5 µg/mL: 5 μg/ml; for inhibition at 10 µg/mL: 10 μg/ml; for inhibition at 40 µg/mL: 40 μg/ml; for inhibition at 20 µg/mL: 20 μg/ml; for inhibition at 2.5 µg/mL: 2.5 μg/ml; for inhibition at 1 µg/mL: 1 μg/ml
Procedure: (§1) Determination of Igs Produced in In Vitro Culture
(§2) BALB/c mice were immunized intraperitoneally with 5 μg of DNP-As adsorbed on 4 mg aluminum hydroxide gel. Four weeks after the immunization, the spleens were excised from the mice and 5×10^7 spleen cells were transferred intravenously into the recipient mice which had been exposed to 600 rad of X-ray irradiation. Immediately after cell transfer, the recipients were then immunized intraperitoneally with 5 μg of DNP-As adsorbed on 4 mg aluminum hydroxide gel to induce adoptive secondary immune response. Further 4 weeks after the immunization of recipients, the spleens were excised from then and the spleen cell suspensions containing 5×10^6 cells/ml were cultured with or without a compound to be tested in 96-well micro-titer plates at 37° C. for 4 days. IgE and IgG secreted into the culture supernatant was each determined correspondingly by ELISA and the inhibitory effect was calculated according to the following equation. [formula]

IgG = IgG produced in in vitro culture of spleen cells from DNP-As immunized mice (ELISA); type: cell-based, BALB/c mice; conditions: Mus musculus, 96 h, spleen cell culture, 37° C., 4 days; for inhibition at 5 µg/mL: 5 μg/ml; for inhibition at 10 µg/mL: 10 μg/ml; for inhibition at 40 µg/mL: 40 μg/ml; for inhibition at 20 µg/mL: 20 μg/ml; for inhibition at 2.5 µg/mL: 2.5 μg/ml; for inhibition at 1 µg/mL: 1 μg/ml
Procedure: as §1, §2

SMILES: CCOC(=O)c1c(-c2ccccc2)c(C#N)c(=O)n2ccccc12 [Compound S-1, 3-Cyano-1-ethoxycarbonyl-2-phenyl-4H-quinolizin-4-one]
- inhibition at 5 µg/mL (IgE): 47%
- inhibition at 5 µg/mL (IgG): 1%

SMILES: CCOC(=O)c1c(-c2ccc(Br)cc2)c(C#N)c(=O)n2ccccc12 [Compound S-3, 2-(4-Bromophenyl)-3-cyano-ethoxycarbonyl-4H-quinolizin-4-one]
- inhibition at 49 µg/mL (IgE; 49 μg/ml): 34%
- inhibition at 49 µg/mL (IgG; 49 μg/ml): 15%

SMILES: CCOC(=O)c1c(-c2ccc(OC)cc2)c(C#N)c(=O)n2ccccc12 [Compound S-6, 3-Cyano-1-ethoxycarbonyl-2-(4-methoxyphenyl)-4-quinolizin-4-one]
- inhibition at 10 µg/mL (IgE): 65%
- inhibition at 10 µg/mL (IgG): 37%

SMILES: CCOC(=O)c1c(-c2ccc3c(c2)OCO3)c(C#N)c(=O)n2ccccc12 [Compound S-8, 3-Cyano-1-ethoxycarbonyl-2-(3,4-methylenedioxyphenyl)-4H-quinolizin-4-one]
- inhibition at 40 µg/mL (IgE): 51%
- inhibition at 40 µg/mL (IgG): 5%

SMILES: CCOC(=O)c1c(-c2ccc(Cl)cc2Cl)c(C#N)c(=O)n2ccccc12 [Compound S-9, 3-Cyano-2-(2,4-dichlorophenyl)-1-ethoxycarbonyl-4H-quinolizin-4-one]
- inhibition at 5 µg/mL (IgE): 64%
- inhibition at 5 µg/mL (IgG): 32%

SMILES: CCCOC(=O)c1c(-c2ccccc2)c(C#N)c(=O)n2ccccc12 [Compound S-10, 3-Cyano-2-phenyl-1-propoxycarbonyl-4H-quinolizin-4-one]
- inhibition at 10 µg/mL (IgE): 57%
- inhibition at 10 µg/mL (IgG): 22%

SMILES: COC(=O)c1c(-c2ccccc2)c(C#N)c(=O)n2ccccc12 [Compound S-11, 3-Cyano-1-methoxycarbonyl-2-phenyl-4H-quinolizin-4-one]
- inhibition at 40 µg/mL (IgE): 46%
- inhibition at 40 µg/mL (IgG): 19%

SMILES: CCOC(=O)c1c(-c2ccc(F)cc2)c(C#N)c(=O)n2ccccc12 [Compound S-12, 3-Cyano-1-ethoxycarbonyl-2-(4-fluorophenyl)-4H-quinolizin-4-one]
- inhibition at 20 µg/mL (IgE): 50%
- inhibition at 20 µg/mL (IgG): 8%

SMILES: CCOC(=O)c1c(-c2ccc(C)c(F)c2)c(C#N)c(=O)n2ccccc12 [Compound S-13, 3-Cyano-1-ethoxycarbonyl-2-(3-fluoro-4-methylphenyl)-4H-quinolizin-4-one]
- inhibition at 40 µg/mL (IgE): 64%
- inhibition at 40 µg/mL (IgG): 26%

SMILES: CCOC(=O)c1c(-c2cc(OC)c(OC)c(OC)c2)c(C#N)c(=O)n2ccccc12 [Compound S-19, 3-Cyano-1-ethoxycarbonyl-2-(3,4,5-trimethoxyphenyl)-4H-quinolizin-4-one]
- inhibition at 20 µg/mL (IgE): 48%
- inhibition at 20 µg/mL (IgG): 8%

SMILES: CCOC(=O)c1c(-c2ccc([N+](=O)[O-])cc2)c(C#N)c(=O)n2ccccc12 [Compound S-20, 3-Cyano-1-ethoxycarbonyl-2-(4-nitrophenyl)-4H-quinolizin-4-one]
- inhibition at 10 µg/mL (IgE): 49%
- inhibition at 10 µg/mL (IgG): 9%

SMILES: CCOC(=O)c1c(-c2ccc(SC)cc2)c(C#N)c(=O)n2ccccc12 [Compound S-25, 3-Cyano-1-ethoxycarbonyl-2-(4-methylthiophenyl)-4H-quinolizin-4-one]
- inhibition at 20 µg/mL (IgE): 61%
- inhibition at 20 µg/mL (IgG): -4%

SMILES: CCOC(=O)c1c(-c2cccc(OC)c2OC)c(C#N)c(=O)n2ccccc12 [Compound S-28, 3-Cyano-2-(2,3-dimethoxyphenyl)-1-ethoxycarbonyl-4H-quinolizin-4-one]
- inhibition at 2.5 µg/mL (IgE): 64%
- inhibition at 2.5 µg/mL (IgG): 14%

SMILES: CCOC(=O)c1c(-c2cc(OC)cc(OC)c2)c(C#N)c(=O)n2ccccc12 [Compound S-29, 3-Cyano-2-(3,5-dimethoxyphenyl)-1-ethoxycarbonyl-4H-quinolizin-4-one]
- inhibition at 40 µg/mL (IgE): 67%
- inhibition at 40 µg/mL (IgG): 17%

SMILES: CCOC(=O)c1c(-c2ccc(O)cc2)c(C#N)c(=O)n2ccccc12 [Compound S-30, 3-Cyano-1-ethoxycarbonyl-2-(4-hydroxyphenyl)-4H-quinolizin-4-one]
- inhibition at 40 µg/mL (IgE): 43%
- inhibition at 40 µg/mL (IgG): -20%

SMILES: CCOC(=O)c1c(-c2ccc(O)c(O)c2)c(C#N)c(=O)n2ccccc12 [Compound S-31, 3-Cyano-2-(3,4-dihydroxyphenyl)-1-ethoxycarbonyl-4H-quinolizin-4-one]
- inhibition at 20 µg/mL (IgE): 54%
- inhibition at 20 µg/mL (IgG): -7%

SMILES: CCOC(=O)c1c(-c2ccc(O)c(OC)c2)c(C#N)c(=O)n2ccccc12 [Compound S-32, 3-Cyano-1-ethoxycarbonyl-2-(4-hydroxy-3-methoxyphenyl)-4H-quinolizin-4-one]
- inhibition at 20 µg/mL (IgE): 53%
- inhibition at 20 µg/mL (IgG): -9%

SMILES: CCOC(=O)c1c(-c2ccc(OC)c(O)c2)c(C#N)c(=O)n2ccccc12 [Compound S-33, 3-Cyano-1-ethoxycarbonyl-2-(3-hydroxy-4-methoxyphenyl)-4H-quinolizin-4-one]
- inhibition at 40 µg/mL (IgE): 58%
- inhibition at 40 µg/mL (IgG): 5%

SMILES: CCOC(=O)c1c(N2CCCCC2)c(C#N)c(=O)n2ccccc12 [Compound S-35, 3-Cyano-1-ethoxycarbonyl-2-piperidino-4H-quinolizin-4-one]
- inhibition at 5 µg/mL (IgE): 30%
- inhibition at 5 µg/mL (IgG): 17%

SMILES: N#Cc1c(N2CCCCC2)c(C(=O)OCCCc2ccccc2)c2ccccn2c1=O [Compound S-36, 3-Cyano-1-(3-phenylpropoxycarbonyl)-2-piperidino-4H-quinolizin-4-one]
- inhibition at 5 µg/mL (IgE): 39%
- inhibition at 5 µg/mL (IgG): -4%

SMILES: N#Cc1c(N2CCCC2)c(C(=O)OCCCc2ccccc2)c2ccccn2c1=O [Compound S-38, 3-Cyano-1-(3-phenylpropoxycarbonyl)-2-(1-pyrrolidinyl)-4H-quinolizin-4-one]
- inhibition at 1 µg/mL (IgE): 68%
- inhibition at 1 µg/mL (IgG): 1%

SMILES: CCOC(=O)c1c(N2CCN(CCO)CC2)c(C#N)c(=O)n2ccccc12 [Compound S-39, 3-Cyano-1-ethoxycarbonyl-2-[4-(2-hydroxyethyl)-piperazin-1-yl]-4H-quinolizin-4-one]
- inhibition at 40 µg/mL (IgE): 63%
- inhibition at 40 µg/mL (IgG): 17%

SMILES: CCOC(=O)c1c(N2CCN(C=O)CC2)c(C#N)c(=O)n2ccccc12 [Compound S-40, 3-Cyano-1-ethoxycarbonyl-2-(4-formylpiperazin-1-yl)-4H-quinolizin-4-one]
- inhibition at 40 µg/mL (IgE): 34%
- inhibition at 40 µg/mL (IgG): 9%

SMILES: N#Cc1c(N2CCN(C=O)CC2)c(C(=O)OCCCc2ccccc2)c2ccccn2c1=O [Compound S-41, 3-Cyano-2-(4-formylpiperazin-1-yl)-1-(3-phenylpropoxycarbonyl)-4H-quinolizin-4-one]
- inhibition at 2.5 µg/mL (IgE): 75%
- inhibition at 2.5 µg/mL (IgG): 9%

SMILES: CCOC(=O)c1c(N2CCN(C)CC2)c(C#N)c(=O)n2ccccc12 [Compound S-42, 3-Cyano-1-ethoxycarbonyl-2-(4-methylpiperazin-1-yl)-4H-quinolizin-4-one]
- inhibition at 40 µg/mL (IgE): 63%
- inhibition at 40 µg/mL (IgG): 19%

SMILES: CN1CCN(c2c(C#N)c(=O)n3ccccc3c2C(=O)OCCCc2ccccc2)CC1 [Compound S-43, 3-Cyano-2-(4-methylpiperazin-1-yl)-1-(3-phenylpropoxycarbonyl)-4H-quinolizin-4-one]
- inhibition at 2.5 µg/mL (IgE): 65%
- inhibition at 2.5 µg/mL (IgG): 1%

SMILES: N#Cc1c(N2CCC(Cc3ccccc3)CC2)c(C(=O)OCCCc2ccccc2)c2ccccn2c1=O [Compound S-45, 2-(4-Benzylpiperidino)-3-cyano-1-(3-phenylpropoxycarbonyl)-4H-quinolizin-4-one]
- inhibition at 1 µg/mL (IgE): 55%
- inhibition at 1 µg/mL (IgG): 16%

SMILES: N#Cc1c(N2CCOCC2)c(C(=O)OCCCc2ccccc2)c2ccccn2c1=O [Compound S-49, 3-Cyano-2-morpholino-1-(3-phenylpropoxycarbonyl)-4H-quinolizin-4-one]
- inhibition at 2.5 µg/mL (IgE): 61%
- inhibition at 2.5 µg/mL (IgG): 21%

SMILES: N#Cc1c(N2CCN(CCO)CC2)c(C(=O)OCCCc2ccccc2)c2ccccn2c1=O [Compound S-54, 3-Cyano-2-[4-(2-hydroxyethyl)piperazin-1-yl]-1-(3-phenylpropoxycarbonyl)-4H-quinolizin-4-one]
- inhibition at 5 µg/mL (IgE): 59%
- inhibition at 5 µg/mL (IgG): 4%

SMILES: CCOC(=O)c1c(N2CCN(CC(=O)N3CCOCC3)CC2)c(C#N)c(=O)n2ccccc12 [Compound S-55, 3-Cyano-1-ethoxycarbonyl-2-(4-morpholinocarbonylmethylpiperazin-1-yl)-4H-quinolizin-4-one]
- inhibition at 40 µg/mL (IgE): 36%
- inhibition at 40 µg/mL (IgG): -4%

SMILES: N#Cc1c(N2CCN(CC(=O)N3CCOCC3)CC2)c(C(=O)OCCCc2ccccc2)c2ccccn2c1=O [Compound S-56, 3-Cyano-2-(4-morpholinocarbonylmethylpiperazin-1-yl)-1-(3-phenylpropoxycarbonyl)-4H-quinolizin-4-one]
- inhibition at 2.5 µg/mL (IgE): 37%
- inhibition at 2.5 µg/mL (IgG): 1%

Reference: US4904657A, “4H-quinolizin-4-one compounds exhibiting therapeutic activities” (Kissei Pharmaceutical Co., Ltd., priority 1987, dated 1990)
